Results: patent publication EP1233748B1, “RETINALDEHYDE COMBINATION WITH ANTIFUNGAL ACTIVITY” (Pierre Fabre Dermo-Cosmetique, priority 1999, dated 2001)

Tests used:
Type in all cases: cell-based
[1] = system: Malassézia furfur IP 1363-82; Malassezia furfur sauvage; assay: Combination study, checkerboard method on microplate, CMF in association and FIC Index; conditions: for CMF % Associés: product in association (Rétinal + Ald. C11), checkerboard, 32°C
Protocol: (§1) *souche : Malassézia furfur IP 1363-82 Malassezia furfur sauvage collecté auprès d'un pityriasis versicolor chez un patient hospitalisé au Centre Hospitalier Régional de Toulouse Rangueil (France). *milieu de culture : Dixon modifié (sous forme de bouillon et sous forme gélosée par ajout d'agar) *appareillage : microplaques stériles Nunc ® Nunclon à 96 puits eau distillée stérile tubes à essais stériles étuve à 32°C spectrophotomètre et cuves adaptées billes de verre stériles *produits : les solutions-mères des produits cités ci-dessous ont été préparés comme suit : • Trans rétinal :solution à 1% dans 20% d'éthanol 95 complétée avec de l'eau distillée stérile. • undécanal :solution à 1% dans 10% de Tween 80 complétée par de l'eau distillée stérile.
Des solutions-mères comme décrites précédemment égales à deux fois la CMF sont réalisées. La méthode de l'échiquier rapportée sur microplaque est utilisée pour croiser les séries de dilution au demi de chaque actif. Après ensemencement et incubation à 32°C, on procède à la lecture des CMF. Un repérage des CMF donnant lieu à des synergies peut alors se faire. Nous obtenons après calcul des FIC Index le tableau suivant :
La synergie peut être mise en évidence par le calcul des Index FIC (Fractional Inhibitory Concentration) des produits. Pour cela, on mesure la valeur de la CMF (ou Concentration Minimale Fongistatique) des principes actifs à tester vis-à-vis d'un type de germe.
Le FIC d'un produit A est défini comme : FICA =(CMF du produit A en association)/(CMF du produit A seul) [formula]
L'association de deux antifongiques A et B est synergique si la somme FIC des rapports (FICA et FICB) est inférieure ou égale à 0,75.
Plus la valeur FIC est faible, plus la synergie est importante.
On considère qu'il y a simple additivité pour des valeurs de FIC comprises entre 0,75 et 1,1 et indifférente dans l'intervalle compris entre 1,1 et 2; au-delà, l'association est notée antagoniste.

[2] = system: Malassézia furfur IP 1363-82; Malassezia furfur sauvage; assay: Determination of the minimal fungistatic concentration (CMF), serial two-fold dilution in Dixon broth in microplates; conditions: product alone, 32°C, 48 to 72 h
Protocol: as §1
• une distribution de 100µl de bouillon Dixon est réalisée dans chaque cupule de la microplaque stérile. • une distribution de 100µl des différents produits a lieu dans une cupule, une cupule par produit (on est alors à 50% d'actif). • une série de dilutions sériées au demi est ensuite réalisée contre un témoin stérilité du milieu de culture et un autre témoin de la vigueur de la souche.
L'ensemencement de la microplaque a lieu sous atmosphère stérile après préparation de l'inoculum fongique comme suit : […]

Malassezia = assay: Antifungal activity on Malassezia, general statements in the description; conditions: alone

Structure (SMILES) | CMF % Associés [1] | CMF % Seuls [2] | FIC Index ([1]; sum of FIC for the association Rétinal + Ald. C11, synergy if <= 0,75) | action sur les levures telles Malassezia (Malassezia)
CCCCCCCCCCC=O [Ald. C11, undécanal] | 0,0001 – 0,03% |  |  | 
CC1=C(/C=C/C(C)=C/C=C/C(C)=C/C=O)C(C)(C)CCC1 [Rétinal, Trans rétinal] | 0,06 – 0,25% | 0,25 – 0,5% | 0,51 à 0,75 | ne possède pas d'action notoire
